According to patent US8420653B2, “Pyrimidine compounds and their uses” (Orchid Chemicals & Pharmaceuticals Limited, priority 2008, dated 2013):

Experiments:
[1] = tested on: TNF-α; assay: In vitro measurement of TNF-α in human PBMC; assay type: cell-based
Experimental: In Vitro Measurement of TNF-α in Human Peripheral Blood Mononuclear Cells
This assay determines the effect of test compounds on the production of TNF a in human Peripheral Blood Mononuclear Cells (PBMC). Compounds were tested for their ability to inhibit the activity of TNF α in human PBMC. PBMC were isolated from blood (of healthy volunteers) using BD Vacutainer CPT™ (Cell preparation tube, BD Bio Science) and suspended in RPMI medium (Physiol. Res. 52, 593-598, 2003). The test compounds were pre-incubated with PBMC (0.5 million/incubation well) for 15 minutes at 37° C. and then stimulated with Lipopolysaccharide (Escherichia coli: B4; 1 μg/ml) for 18 hours at 37° C. in 5% CO2. The levels of TNF-α in the cell culture medium were estimated using enzyme-linked immunosorbent assay performed in a 96 well format as per the procedure of the manufacturer (Cayman Chemical, Ann Arbor, USA).

[2] = tested on: TNF-α; assay: In vitro measurement of TNF-α in human whole blood; assay type: cell-based
Experimental: In Vitro Measurement of TNF-α in Human Whole Blood
This assay determines the effect of test compounds on the production of TNF-α in human whole blood. Compounds were tested for their ability to inhibit the activity of TNF-α in whole blood.
Heparanised blood from a healthy human volunteer was collected and diluted with RPMI 1640 incomplete medium (1:5 dilution). Diluted blood was aliquoted into 96 well plate 170 ul/well immediately. 20 ul of the drug of different concentrations was added to the respective wells with a control. The plate was incubated in 37° C. thermo mixer at 400 rpm for 60-70 minutes. After the incubation 10 ul of the LPS (from E. coli B4) was added to get the final concentration of 1 ug/well. The plate was again incubated in the 37° C. thermo mixer at 400 rpm 120 minutes in the thermo mixer and then left in the 37° C. CO2 incubator for two more hours so that the total stimulation time is four hours. The plasma was collected carefully without disturbing the pellet at the bottom and stored at −20° C. Then TNF-α levels were estimated using the R&D systems ELISA kit duoset kit (DY210).

[3] = tested on: LPS induced neutrophilia; assay: LPS induced neutrophilia model for asthma and COPD; assay type: in vivo; settings: Wistar rats, BAL 4 h after LPS
Experimental: LPS Induced Neutrophilia Model for Asthma and COPD LPS induced neutrophilia in Wistar rats was performed using the protocol described in Pulm Pharmacol & Ther 17, 3, 133-140, 2004. Male Wistar rats were acclimatized to laboratory conditions five to seven days prior to the start of the experiment. They were randomly distributed to various groups based on body weight. Except normal group all the animals were exposed to LPS 100 μg/ml for 40 min. The rats were dosed with the test compound suspended in the vehicle containing 0.25% carboxymethylcellulose before half an hour of LPS exposure. BAL was performed 4 h after LPS exposure, total cell count and DLC was done and compared with control and the standard drug. Percentage Inhibition for neutrophilia was calculated.

[4] = tested on: TPA induced dermatitis; assay: Psoriasis model, TPA induced dermatitis; assay type: in vivo; settings: mice, topical on the ears
Experimental: Inhibitory Activity in Psoriasis Model TPA induced dermatitis in mice was performed using the protocol described in Eur J Pharmacol 507, 253-259, 2005. Balb/c mice were acclimatized to laboratory conditions 5-7 days prior to the start of the experiment. They were randomly distributed to various groups based on body weight. The baseline ear thickness of the animal's both ears using thickness gauge was measured. For each animal 20 μl of that contains 2.5 μg of TPA was applied with help of micropipettor with disposable tips. Test compound was applied topically to both inner and outer surface of the both the ears i.e. left and right ear with acetone as control after 30 minutes 6 hours and 24 hours after application of TPA (20 μl). Ear thickness was measured after 6 and 24 hours in animals, while for ear weight ears were excised under anesthesia and weighed.

[5] = tested on: TNF-α; assay: LPS induced sepsis for measurement of TNF-α inhibition in mice; assay type: in vivo; settings: Mus musculus; TNF alpha inhibition in mice sepsis model
Experimental: LPS Induced Sepsis for Measurement of TNF-α Inhibition in Mice
The LPS induced sepsis model in mice was performed as described by Les sekut et al (J Lab Clin Med 1994; 124, 813-20). Female Swiss albino mice were selected and the body weights were equivalent within each group. The mice were fasted for 20 hours with free access to water. The mice were dosed orally with the test compound suspended in vehicle containing 0.5% Tween 80 in 0.25% Carboxy-methylcellulose sodium salt. The control mice were administered the vehicle alone. After 30 minutes of oral dosing, mice were injected with 500 μg of Lipopolysaccharide (Escherichia coli, LPS: B4 from Siga) in phosphate buffer saline solution into the intraperitoneal cavity of the mice. After 90 minutes of LPS administration mice were bled via retro-orbital sinus puncture. Blood samples were stored overnight at 4° C. Serum samples were collected by centrifuging the samples at 4000 rpm for 15 minutes at 4° C. Immediately the serum samples were analyzed for TNF-α levels using commercially available mouse TNF-α ELISA kit (Amersham Biosciences) and assay was performed by the manufacturer instruction.
ED50 Measurement of TNF Alpha Inhibition in Mice Sepsis Model

[6] = biological target: T1, PDE4B enzyme (Homo sapiens, UniProt Q07343); assay: PDE4 assay with pure PDE4B enzyme (Calbiochem); assay type: biochemical
T1 construct: purchased Calbiochem
T1 sequence (Q07343 whole entry, species assumed): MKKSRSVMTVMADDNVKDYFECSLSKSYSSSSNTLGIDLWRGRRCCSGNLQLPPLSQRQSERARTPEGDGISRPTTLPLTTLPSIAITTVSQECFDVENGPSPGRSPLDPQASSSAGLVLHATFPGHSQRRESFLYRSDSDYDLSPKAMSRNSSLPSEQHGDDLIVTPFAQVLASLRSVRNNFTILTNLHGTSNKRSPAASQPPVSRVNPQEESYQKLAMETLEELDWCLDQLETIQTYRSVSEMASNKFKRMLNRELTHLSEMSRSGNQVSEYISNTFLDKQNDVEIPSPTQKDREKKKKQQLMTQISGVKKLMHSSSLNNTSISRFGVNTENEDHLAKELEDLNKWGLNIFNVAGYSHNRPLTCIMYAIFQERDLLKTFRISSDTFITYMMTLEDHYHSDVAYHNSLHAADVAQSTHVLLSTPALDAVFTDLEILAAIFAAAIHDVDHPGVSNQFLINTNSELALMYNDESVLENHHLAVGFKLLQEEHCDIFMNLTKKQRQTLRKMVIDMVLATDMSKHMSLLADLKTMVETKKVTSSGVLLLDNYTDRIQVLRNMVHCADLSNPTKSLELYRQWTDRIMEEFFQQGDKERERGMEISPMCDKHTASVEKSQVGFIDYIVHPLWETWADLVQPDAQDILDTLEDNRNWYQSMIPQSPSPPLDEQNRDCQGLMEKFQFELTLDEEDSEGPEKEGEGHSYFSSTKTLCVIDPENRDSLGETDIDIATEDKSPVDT

[7] = tested on: PDE4; assay: PDE4 activity (source human U937 cells); assay type: biochemical; settings: read-out: PDE4 inhibition IC50 (nm)
Experimental: PDE4 inhibition was measured by following a literature assay procedure (Cortizo J et al., Br J. Pharmacol., 1993, 108: 562-568. The assay method involves the following conditions.
Substrate: 1.01 μM [^3H] camp+camp
Pre-Incubation Time/Temperature: 15 minutes at 25° C.
Incubation Time/Temperature. 20 minutes at 25° C.
Incubation buffer: 50 mM Tris-HCl, pH 7.5, 5 mM MgCl2
Quantitation method: Quantitation of [^3H] Adenosine
Significance criteria: ≧50% of max stimulation or inhibition

## NS(=O)(=O)c1cccc(-c2c(-c3ccccc3)nc(C(F)(F)F)nc2N2CCOCC2)c1 [Example 98, 3-[4-Morpholin-4-yl-2-(trifluoromethyl)-6-phenyl-pyrimidin-5-yl]benzenesulfonamide]
[1]; Conc. (1 μM)
  inhibition at 1 µM: 94.1%
[1]; Conc. (10 μM)
  inhibition at 10 µM: 94.6%
[2]; Conc. (1 μM)
  inhibition at 1 µM: 40.6%
[2]; Conc. (10 μM)
  inhibition at 10 µM: 62%
[3]
  LPS induced neutrophilia % inhibition at 10 mg/kg: 31.73%
[4]
  Psoriasis-acute TPA induced dermatitis % inhibition Ear Wt: 11.84%
  Psoriasis-acute TPA induced dermatitis % inhibition Ear thickness: 41.10%
[5]
  ED50: 0.01 mg/kg
[6]
  inhibition at 10 µM: 76.1%
[7]
  IC50: 7 nM
